Here are results for 19 molecules from patent US20230167127A1, “COMPOUNDS AND THEIR USE IN THE TREATMENT OF BACTERIAL INFECTION” (Hoffmann-La Roche Inc., priority 2020, published 2023).

The subject of this assay is Escherichia coli ATCC 25922. In words: 50% growth inhibitory concentration (IC50) determination, Iso-Sensitest broth dilution. It is filed as cell-based. To be noted: Escherichia coli, ATCC25922, 16 h, strain Escherichia coli ATCC 25922; 10-point broth dilution, optical density at 600 nm over 16 h; read-out: Escherichia coli growth inhibition IC50. Summed up:
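10-point twofold Iso-Sensitest broth dilution (e.g. 50 to 0.097 μM final) with DMSO stocks, incubated at 35±2° C. Growth followed by OD 600 nm every 20 min over 16 h; IC50 derived from growth inhibition during logarithmic phase.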

pIC50: −log10 of the molar value.

Take `O=C1COc2ccc(N3CC(CCNCC4Cc5cccc(Cl)c5C4)OC3=O)nc2N1` (stereo not shown) [Example 1, 6-[5-[2-[(4-Chloro-2,3-dihydro-1H-inden-2-yl)methylamino]ethyl]-2-oxo-1,3-oxazolidin-3-yl]-4H-pyrido[3,2-b][1,4]oxazin-3-one; formic acid]: the negative logarithm of the IC50 (pIC50) is over 7.01.

Regarding `NC1c2cccc(Cl)c2CC1CCNCC1CN(c2cnc3c(n2)NC(=O)CO3)C(=O)O1` (racemic) [Example 266, 6-[2-Oxo-5-[[2-[rac-1,2-trans-1-amino-4-chloro-2,3-dihydro-1H-inden-2-yl]ethylamino]methyl]-1,3-oxazolidin-3-yl]-4H-pyrazino[2,3-b][1,4]oxazin-3-one], the pIC50 is 6.69.

For the molecule `N#Cc1cccc2c1CC(N[C@H]1CC[C@H](C3CN(c4ccc5c(n4)NC(=O)CO5)C(=O)O3)CC1)C2` (stereo partly drawn) [Example 34, 2-[[trans-4-[2-oxo-3-(3-oxo-4H-pyrido[3,2-b][1,4]oxazin-6-yl)-1,3-oxazolidin-5-yl]cyclohexyl]amino]-2,3-dihydro-1H-indene-4-carbonitrile; formic acid], the pIC50 is 5.78.

`Cc1nccc2c1CC(NCCCc1cn(-c3cnc4c(n3)NC(=O)CO4)c(=O)o1)C2` (single isomer, unassigned; enantiomer a) [Example 369, 6-[5-[3-[(1-Methyl-6,7-dihydro-5H-cyclopenta[c]pyridin-6-yl)amino]propyl]-2-oxo-1,3-oxazol-3-yl]-4H-pyrazino[2,3-b][1,4]oxazin-3-one; formic acid, Enantiomer A]: the pIC50 is 6.76.

For `Cc1ncnc2c1CC(CNCCC1CN(c3ccc4c(n3)NC(=O)CO4)C(=O)O1)C2` (stereo not shown) [Example 421, 6-[5-[2-[(4-methyl-6,7-dihydro-5H-cyclopenta[d]pyrimidin-6-yl)methylamino]ethyl]-2-oxo-1,3-oxazolidin-3-yl]-4H-pyrido[3,2-b][1,4] oxazin-3-one], the pIC50 is 6.21.

Regarding `O=C1COc2ccc(N3CC(CCNC4Cc5ccc(Cl)cc5C4)OC3=O)nc2N1` (stereo not shown) [Example 11, 6-[5-[2-[(5-chloro-2,3-dihydro-1H-inden-2-yl)amino]ethyl]-2-oxo-1,3-oxazolidin-3-yl]-4H-pyrido[3,2-b][1,4]oxazin-3-one], the negative-log IC50 (pIC50) is 5.62.

Turning to `Cc1c(F)cnc2c1CC(CNCCC1CN(c3cnc4c(n3)NC(=O)CO4)C(=O)O1)C2` (stereo not shown) [Example 299, 6-[5-[2-[(3-fluoro-4-methyl-6,7-dihydro-5H-cyclopenta[b]pyridin-6-yl)methylamino]ethyl]-2-oxo-1,3-oxazolidin-3-yl]-4H-pyrazino[2,3-b][1,4]oxazin-3-one], the pIC50 was over 7.01.

For the molecule `CC(N)COc1cc(C#N)c2c(c1)CC(CNCCC1CN(c3cnc4c(n3)NC(=O)CO4)C(=O)O1)C2` (stereo not shown) [Example 193, 6-(2-aminopropoxy)-2-(((2-(2-oxo-3-(3-oxo-3,4-dihydro-2H-pyrazine[2,3-b][1,4]oxazin-6-yl)oxazolidin-5-yl)ethyl)amino)methyl)-2,3-dihydro-1H-indene-4-carbonitrile; 2,2,2-trifluoroacetic acid], the pIC50 is over 7.01.

As for `Cn1nnc(COc2cc(C#N)c3c(c2)CC(CNCCC2CN(c4cnc5c(n4)NC(=O)CO5)C(=O)O2)C3)n1` (stereo not shown) [Example 389, 6-[(2-methyltetrazol-5-yl)methoxy]-2-[[2-[2-oxo-3-(3-oxo-4H-pyrazino[2,3-b][1,4]oxazin-6-yl)-1,3-oxazolidin-5-yl]ethylamino]methyl]-2,3-dihydro-1H-indene-4-carbonitrile], the negative-log IC50 (pIC50) was over 7.01.

On to `O=C1COc2ccc(N3CC([C@H]4C[C@H](NC5Cc6cccc(Cl)c6C5)C4)OC3=O)nc2N1` (stereo partly drawn) [Example 17, 6-[5-[trans-3-[(4-chloro-2,3-dihydro-1H-inden-2-yl)amino]cyclobutyl]-2-oxo-1,3-oxazolidin-3-yl]-4H-pyrido[3,2-b][1,4]oxazin-3-one], for which the pIC50 was 6.08.

Regarding `NC1c2cccc(Cl)c2CC1CCNCC1CN(c2ccc3c(n2)NC(=O)CO3)C(=O)O1` (racemic) [Example 194, 6-[2-oxo-5-[[2-[rac-1,2-trans-1-amino-4-chloro-2,3-dihydro-1H-inden-2-yl]ethylamino]methyl]-1,3-oxazolidin-3-yl]-4H-pyrido[3,2-b][1,4]oxazin-3-one], the negative logarithm of the IC50 (pIC50) was over 7.01.

Regarding `NC(=O)COc1cc(F)c2c(c1)CC(CNCC[C@H]1CN(c3cnc4c(n3)NC(=O)CO4)C(=O)O1)C2` (single isomer, unassigned; isomer a) [Example 379], the negative logarithm of the IC50 (pIC50) is over 7.01.

For the molecule `O=C1COc2ccc(N3CC(CCNCC4Cc5cccc(Cl)c5C4)OC3=O)cc2N1` (stereo not shown) [Example 15, 6-[5-[2-[(4-chloro-2,3-dihydro-1H-inden-2-yl)methylamino]ethyl]-2-oxo-1,3-oxazolidin-3-yl]-4H-1,4-benzoxazin-3-one; formic acid], the pIC50 was 6.73.

`N#Cc1nccc2c1CC(CNCCC1CN(c3ccc4c(n3)NC(=O)CO4)C(=O)O1)C2` (stereo not shown) [Example 90, 6-[[2-[2-oxo-3-(3-oxo-4H-pyrido[3.2-b][1,4]oxazin-6-yl)-1,3-oxazolidin-5-yl]ethylamino]methyl]-6,7-dihydro-5H-cyclopenta[c]pyridine-1-carbonitrile; formic acid]: the pIC50 is 6.77.

Take `NC1c2cccc(Cl)c2CC1CN1CCC2(CC1)CN(c1ccc3c(n1)NC(=O)CO3)C(=O)O2` (racemic) [Example 212, 6-[2-oxo-8-[[rac-1,2-trans-1-amino-4-chloro-2,3-dihydro-1H-inden-2-yl]methyl]-1-oxa-3,8-diazaspiro[4.5]decan-3-yl]-4H-pyrido[3,2-b][1,4]oxazin-3-one]: the pIC50 was over 7.01.

For `CC(N)COc1cc2c(c(Cl)n1)CC(CNCCC1CN(c3ccc4c(n3)NC(=O)CO4)C(=O)O1)C2` (stereo not shown) [Example 144, 6-[5-[2-[[3-(2-aminopropoxy)-1-chloro-6,7-dihydro-5H-cyclopenta[c]pyridin-6-yl]methylamino]ethyl]-2-oxo-1,3-oxazolidin-3-yl]-4H-pyrido[3,2-b][1,4]oxazin-3-one; formic acid], the pIC50 is 6.88.

As for `Cc1nc(OCC2COCCN2)c(C)c2c1CC(CNCCC1CN(c3ccc4c(n3)NC(=O)CO4)C(=O)O1)C2` (stereo not shown) [Example 199, 6-[5-[2-[[1,4-dimethyl-3-(morpholin-3-ylmethoxy)-6,7-dihydro-5H-cyclopenta[c]pyridin-6-yl]methylamino]ethyl]-2-oxo-1,3-oxazolidin-3-yl]-4H-pyrido[3,2-b][1,4]oxazin-3-one], the pIC50 was 7.05.

On to `CNC(=O)COc1cc(Cl)c2c(c1)C(N)C(CNCCC1CN(c3cnc4c(n3)NC(=O)CO4)C(=O)O1)C2` (racemic) [Example 399, 2-[[rac-2,3-trans-3-Amino-7-chloro-2-[[2-[2-oxo-3-(3-oxo-4H-pyrazino[2,3-b][1,4]oxazin-6-yl)-1,3-oxazolidin-5-yl]ethylamino]methyl]-2,3-dihydro-1H-inden-5-yl]oxy]-N-methylacetamide; formic acid], for which the pIC50 is 5.95.

As for `N#Cc1nccc2c1CC(NCCCC1CN(c3ccc4c(n3)NC(=O)CO4)C(=O)O1)C2` (stereo not shown) [Example 95, 6-[3-[2-oxo-3-(3-oxo-4H-pyrido[3,2-b][1,4]oxazin-6-yl)-1,3-oxazolidin-5-yl]propylamino]-6,7-dihydro-5H-cyclopenta[c]pyridine-1-carbonitrile], the pIC50 is 6.63.
